{
  "source": "paper PMC10648875",
  "about": "(Antimicrobial Agents and Chemotherapy, 2023)",
  "key": {"VIM-1 (lysate of KP1015)": {"target": "T1, VIM-1 (lysate of KP1015) (Pseudomonas aeruginosa, UniProt A0A0F7KYQ8)", "T1 construct": "endogenous in cells; host or cells: K. pneumoniae KP1015", "assay": "IC50 of β-lactamase inhibition (imipenem cleavage) in cell lysates", "format": "biochemical, K. pneumoniae"}, "[1]": {"tested_on": "Escherichia coli NCTC 13353 (ECM7514), CTX-M-15", "assay": "MIC, reference strain", "format": "cell-based", "conditions": "for MIC: CTX-M-15, BLI at the fixed concentration in brackets", "procedure": "(§1) Other BL/BLI combinations were tested at their recommended BLI concentrations. MIC values for the partner antibiotics and BLIs alone were also determined (Table 2; Table S1). All investigational and marketed BLIs enhanced the potency of antibiotics according to their spectrum of inhibition. MIC values against CLSI-approved QC strains were within acceptable ranges for drugs and combinations tested (Table 3).\n(§2) Isolates were tested for antimicrobial susceptibility using the broth microdilution methodology per CLSI M07 (2018) guidelines ([40]). JMI Laboratories produced frozen-form 96-well panels with cation-adjusted Mueller-Hinton broth as the testing medium. Current CLSI quality assurance practices were followed when performing the susceptibility tests. MIC values were validated by concurrently testing the following CLSI-recommended ([27]) QC reference strains: E. coli NCTC 13353 (CTX-M-15), Klebsiella pneumoniae ATCC BAA-2814 (KPC-3), Klebsiella pneumoniae ATCC BAA-1705 (KPC-2), and K. pneumoniae ATCC 700603 (SHV-18). The inoculum density during susceptibility testing was monitored by bacterial colony counts. Where applicable, QC ranges for tested reference strains were those approved or published by the CLSI ([27]). Meropenem was purchased from Carbosynth; ceftolozane was synthesized at Acme Bioscience, Palo Alto, CA, USA; all other antibiotics were from Sigma Aldrich. Xeruborbactam was synthesized at Qpex Biopharma, San Diego, CA, USA. Avibactam was purchased from eNovation, Chemicals LLC, Bridgewater, NJ, USA. Vaborbactam was synthesized at The Medicines Company, San Diego, CA. Relebactam, taniborbactam, and relebactam were synthesized at Acme Bioscience."}, "[2]": {"tested_on": "P. aeruginosa BAA-3197 (PA5257), KPC-2", "assay": "MIC, reference strain", "format": "cell-based", "conditions": "for MIC: KPC-2, BLI at the fixed concentration in brackets"}, "[3]": {"tested_on": "E. coli CDC 0069 (EC1106), NDM-1", "assay": "MIC, reference strain", "format": "cell-based", "conditions": "BLI at the fixed concentration in brackets", "procedure": "as §1\nas §2, with “([27]).” for “([27]). Meropenem was purchased from Carbosynth; ceftolozane was synthesized at Acme Bioscience, Palo Alto, CA, USA; all other antibiotics were from Sigma Aldrich. Xeruborbactam was synthesized at Qpex Biopharma, San Diego, CA, USA. Avibactam was purchased from eNovation, Chemicals LLC, Bridgewater, NJ, USA. Vaborbactam was synthesized at The Medicines Company, San Diego, CA. Relebactam, taniborbactam, and relebactam were synthesized at Acme Bioscience.”"}, "[4]": {"tested_on": "Klebsiella pneumoniae ATCC 700603 (KPM2881), SHV-18", "assay": "MIC, reference strain", "format": "cell-based", "conditions": "for MIC: SHV-18, BLI at the fixed concentration in brackets", "procedure": "as §1\nas §2, with “([27]).” for “([27]). Meropenem was purchased from Carbosynth; ceftolozane was synthesized at Acme Bioscience, Palo Alto, CA, USA; all other antibiotics were from Sigma Aldrich. Xeruborbactam was synthesized at Qpex Biopharma, San Diego, CA, USA. Avibactam was purchased from eNovation, Chemicals LLC, Bridgewater, NJ, USA. Vaborbactam was synthesized at The Medicines Company, San Diego, CA. Relebactam, taniborbactam, and relebactam were synthesized at Acme Bioscience.”"}, "[5]": {"tested_on": "K. pneumoniae ATCC BAA-2814 (KP1074), KPC-3", "assay": "MIC, reference strain", "format": "cell-based", "conditions": "for MIC: KPC-3, BLI at the fixed concentration in brackets", "procedure": "as §1\nas §2, with “([27]).” for “([27]). Meropenem was purchased from Carbosynth; ceftolozane was synthesized at Acme Bioscience, Palo Alto, CA, USA; all other antibiotics were from Sigma Aldrich. Xeruborbactam was synthesized at Qpex Biopharma, San Diego, CA, USA. Avibactam was purchased from eNovation, Chemicals LLC, Bridgewater, NJ, USA. Vaborbactam was synthesized at The Medicines Company, San Diego, CA. Relebactam, taniborbactam, and relebactam were synthesized at Acme Bioscience.”"}, "[6]": {"tested_on": "K. pneumoniae ATCC BAA-1705 (KPM1123), KPC-2", "assay": "MIC, reference strain", "format": "cell-based", "conditions": "for MIC: KPC-2, BLI at the fixed concentration in brackets", "procedure": "as §1\nas §2, with “([27]).” for “([27]). Meropenem was purchased from Carbosynth; ceftolozane was synthesized at Acme Bioscience, Palo Alto, CA, USA; all other antibiotics were from Sigma Aldrich. Xeruborbactam was synthesized at Qpex Biopharma, San Diego, CA, USA. Avibactam was purchased from eNovation, Chemicals LLC, Bridgewater, NJ, USA. Vaborbactam was synthesized at The Medicines Company, San Diego, CA. Relebactam, taniborbactam, and relebactam were synthesized at Acme Bioscience.”"}, "[7]": {"tested_on": "K. pneumoniae CDC 0135 (KP1291), VIM-1", "assay": "MIC, reference strain", "format": "cell-based", "conditions": "BLI at the fixed concentration in brackets", "procedure": "as §1\nas §2, with “([27]).” for “([27]). Meropenem was purchased from Carbosynth; ceftolozane was synthesized at Acme Bioscience, Palo Alto, CA, USA; all other antibiotics were from Sigma Aldrich. Xeruborbactam was synthesized at Qpex Biopharma, San Diego, CA, USA. Avibactam was purchased from eNovation, Chemicals LLC, Bridgewater, NJ, USA. Vaborbactam was synthesized at The Medicines Company, San Diego, CA. Relebactam, taniborbactam, and relebactam were synthesized at Acme Bioscience.”"}, "[8]": {"tested_on": "surveillance isolates of carbapenem-resistant strains of Enterobacterales", "assay": "MIC testing of SENTRY surveillance CRE isolates (Table 4, Table S4)", "format": "cell-based"}},
  "note": "Where two headings read alike, the source gives them in different places.",
  "data": [
    {"smiles": "NCCN[C@H]1CC[C@H](CC(=O)N[C@H]2Cc3cccc(C(=O)O)c3OB2O)CC1", "note": "[Taniborbactam, taniborbactam]", "values": [
      {"measurement": "IC50", "setting": "VIM-1 (lysate of KP1015); KP1015, VIM-1, imipenem cleavage, read-out: IC50 of β-lactamase inhibition in cell lysates", "result": "190 ± 10", "unit": "nM"},
      {"measurement": "MIC", "setting": "[1]", "result": ">64", "unit": "µg/mL"},
      {"measurement": "MIC", "setting": "[2]", "result": ">64", "unit": "µg/mL"},
      {"measurement": "MIC", "setting": "[3]", "result": ">64", "unit": "µg/mL"},
      {"measurement": "MIC", "setting": "[4]", "result": ">64", "unit": "µg/mL"},
      {"measurement": "MIC", "setting": "[5]", "result": ">64", "unit": "µg/mL"},
      {"measurement": "MIC", "setting": "[6]", "result": ">64", "unit": "µg/mL"},
      {"measurement": "MIC", "setting": "[7]", "result": ">64", "unit": "µg/mL"}
    ]},
    {"smiles": "O=C(O)c1c(F)ccc2c1OB(O)[C@@H]1C[C@H]21", "note": "[Xeruborbactam, xeruborbactam]", "values": [
      {"measurement": "% of isolates with xeruborbactam MIC of ≤8 µg/mL", "setting": "[8]", "result": 13.3, "unit": "%"},
      {"measurement": "MIC50", "setting": "[8]; read-out: MIC50 for xeruborbactam alone, range over all the subsets of isolates", "result": "16 to 32", "unit": "µg/mL"},
      {"measurement": "% of isolates without significant growth inhibition at 4 µg/mL", "setting": "[8]; xeruborbactam alone at 4 µg/mL", "result": "> 99", "unit": "%"},
      {"measurement": "IC50", "setting": "VIM-1 (lysate of KP1015)", "result": "250 ± 20", "unit": "nM"},
      {"measurement": "MIC", "setting": "[1]; Escherichia coli, NCTC13353, read-out: MIC", "result": 8, "unit": "µg/mL"},
      {"measurement": "MIC (number of observations)", "setting": "[1]; Table S1, repeated QC testing", "result": "4 (1) - 8 (8) - 16 (2) µg/ml"},
      {"measurement": "MIC", "setting": "[2]; Pseudomonas aeruginosa, BAA3197, read-out: MIC", "result": "> 64", "unit": "µg/mL"},
      {"measurement": "MIC (number of observations)", "setting": "[2]; Table S1, repeated QC testing", "result": "64 (1)- >128 (13) µg/ml"},
      {"measurement": "MIC", "setting": "[3]; Escherichia coli, read-out: MIC", "result": 16, "unit": "µg/mL"},
      {"measurement": "MIC", "setting": "[4]; Klebsiella pneumoniae, ATCC700603, read-out: MIC", "result": 16, "unit": "µg/mL"},
      {"measurement": "MIC (number of observations)", "setting": "[4]; Table S1, repeated QC testing", "result": "8 (7)-16 (4) µg/ml"},
      {"measurement": "MIC", "setting": "[5]; Klebsiella pneumoniae, ATCCBAA2814, read-out: MIC", "result": 32, "unit": "µg/mL"},
      {"measurement": "MIC (number of observations)", "setting": "[5]; Table S1, repeated QC testing", "result": "16 (20)-32 (28) µg/ml"},
      {"measurement": "MIC", "setting": "[6]; Klebsiella pneumoniae, ATCCBAA1705, read-out: MIC", "result": 16, "unit": "µg/mL"},
      {"measurement": "MIC (number of observations)", "setting": "[6]; Table S1, repeated QC testing", "result": "8 (2)-16 (44)-32 (2) µg/ml"},
      {"measurement": "MIC", "setting": "[7]; Klebsiella pneumoniae, read-out: MIC", "result": 16, "unit": "µg/mL"}
    ]}
  ]
}
